According to paper PMC8822125, “RW-BP100-4D, a Promising Antimicrobial Candidate With Broad-Spectrum Bactericidal Activity” (Frontiers in Microbiology, 2022):
Values joined by “and” are separate entries in the source; they are usually repeats but may differ in a detail not shown here. Equal entries are not always repeated. Where a SMILES comes first, the peptide text is derived from it.

Legend:
S. aureus ATCC29213 = conditions: 1 h, mean of three
[1] = tested on: Staphylococcus aureus ATCC33591; conditions: Staphylococcus aureus ATCC33591 (mecA); mean of three repeated experiments
[2] = tested on: Candida albicans ATCC10231; test: MIC/MBC, broth microdilution (CLSI M38); type: cell-based
trypsin = test: in vitro
[3] = tested on: S. aureus ATCC29213 biofilm formation; conditions: peptide 6.25 μg/mL, 24 h, 37°C, crystal violet OD590
[4] = tested on: Shewanella putrefaction ATCC49138; conditions: mean of three repeated experiments
Procedure: (§1) To compare the antibacterial activity of RW-BP100 and its serial derivatives, the MIC against S. aureus ATCC29213 and E. coli ATCC25922 were determined using broth microdilution method according to the guidelines of Clinical and Laboratory Standards Institute (CLSI) M100-S25 ([CLSI, 2015]). Briefly, peptides were dissolved in sterilized water and twofold diluted in Mueller-Hinton (MH) broth (Beijing Land Bridge Technology) at the concentration ranges of 0.098–100 μg/mL. Then the peptides were mixed with an equal volume (100 μL) of bacterial suspensions of 10^6 CFU/mL in a sterilized 96-well microtiter plate. […] To further evaluate the antimicrobial spectrum of RW-BP100-4D, MICs were determined against a more variety of Gram-positive and Gram-negative bacterial species, and the fungal strains (according to CLSI M38 guideline). […] MIC and MBC testing were performed with three independent repeats.

[5] = tested on: Staphylococcus epidermidis ATCC29887; conditions: mean of three repeated experiments
Procedure: as §1

[6] = tested on: Campylobacter jejuni ATCC33291; conditions: mean of three repeated experiments
Procedure: as §1

[7] = tested on: Listeria monocytogenes LM08; conditions: Listeria monocytogenes LM08 (tetM); mean of three repeated experiments
Procedure: as §1

[8] = tested on: Streptococcus agalactiae ATCC13813; conditions: mean of three repeated experiments
Procedure: as §1

[9] = tested on: Acinetobacter baumannii 34AB; conditions: Acinetobacter baumannii 34AB (tet(X3)); mean of three repeated experiments
Procedure: as §1

[10] = tested on: Klebsiella pneumoniae XG-Kpn03; conditions: Klebsiella pneumoniae XG-Kpn03 (blaNDM-5); mean of three repeated experiments
Procedure: as §1

Escherichia coli XG-E1 = Escherichia coli XG-E1 (blaNDM-5, mcr-1); mean of three repeated experiments
Procedure: as §1

Enterococcus faecalis 32 = Enterococcus faecalis 32 (optrA); mean of three repeated experiments
Procedure: as §1

[11] = tested on: Listeria monocytogenes ATCC19115; conditions: mean of three repeated experiments
Procedure: as §1

[12] = tested on: Salmonella enterica ATCC13076; conditions: mean of three repeated experiments
Procedure: as §1

C. albicans ATCC10231 = conditions: 1 h, mean of three
Procedure: To evaluate the thermal and pH stability of RW-BP100-4D, 100 μL of the peptide (100 μg/mL, in PBS buffer) was incubated under different temperatures (40, 50, 60, 70, 80, 90, and 100°C, pH 7) or different pHs (2, 3, 4, 5, 6, 7, 8 and 9, 37°C) for 1 h ([Song et al., 2020]). After incubation, the pH of the peptide solutions was adjusted to 7.0 using NaOH or HCl. For protease and serum stability test, 100 μL of RW-BP100-4D (100 μg/mL) was incubated with proteinase K (1 mg/mL), trypsin (1 mg/mL), papain (1 mg/mL), or sterile calf serum at 37°C for 1 h, respectively ([Song et al., 2020]). After the treatments, the proteases and calf serum were inactivated by heating at 80°C for 30 min. The remnant activity of the treated RW-BP100-4D was evaluated by determining the MICs against E. coli ATCC25922, S. aureus ATCC29213, and C. albicans ATCC10231 using broth microdilution method. RW-BP100-4D without any treatment was used as the control and each test was conducted with three independent repeats. Moreover, degradation rate (%) was estimated as the percentage of degraded peptide calculated from the decrease of the high-performance liquid chromatography (HPLC) peak area of the native peptide. HPLC analysis was performed using the Agilent™ 1100 Series equipped with an Agilent analysis column (ZORBAX RX-C8, 2.1 mm × 150 mm, 5 μm) and an UV detector at 220 nm. Mobile phase was composed of A (H2O) and B (acetonitrile), which contained 0.065% trifluoroacetic (v/v) and 0.05% trifluoroacetic (v/v), respectively.

in vitro = conditions: calf serum
sheep red blood cells = sheep red blood cells in PBS, 37°C, 1 h, OD576, relative to melittin, mean ± SD, three repeats;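 also: hemolysis expressed in % from supernatant absorbance, with PBS-treated cells as 0% baseline and melittin as 100%, peptide mixed 1:1 with an 8% v/v erythrocyte suspension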
Escherichia coli O157:H7 = test: MIC/MBC, broth microdilution; type: cell-based; conditions: mean of three repeated experiments
[13] = 100 μg/mL peptide in PBS, pH 7, 40-80 ℃, then broth microdilution
[14] = 100 μg/mL peptide in PBS, pH 7, 90 ℃
[15] = 100 μg/mL peptide in PBS, pH 7, 100 ℃
[16] = 100 μg/mL peptide with papain 1 mg/mL, 37°C, protease inactivated 80°C 30 min
[17] = 100 μg/mL peptide with sterile calf serum, 37°C, serum inactivated 80°C 30 min
[18] = 100 μg/mL peptide with trypsin 1 mg/mL, 37°C, protease inactivated 80°C 30 min
[19] = 100 μg/mL peptide, pH 2-7, 37°C, then adjusted to pH 7.0
[20] = 100 μg/mL peptide, pH 8-9, 37°C, then adjusted to pH 7.0

## CC[C@H](C)[C@H](NC(=O)[C@H](CCCNC(=N)N)NC(=O)[C@H](CCCNC(=N)N)NC(=O)[C@@H](Cc1ccccc1)NC(=O)[C@H](CC(C)C)NC(=O)[C@H](CCCNC(=N)N)NC(=O)[C@@H](N)CCCNC(=N)N)C(=O)N[C@@H](CC(C)C)C(=O)N[C@@H](CCCNC(=N)N)C(=O)N[C@@H](Cc1c[nH]c2ccccc12)C(=O)N[C@@H](CC(C)C)C(N)=O [RW-BP100-4D] (HELM PEPTIDE1{R.R.L.[dF].R.R.I.L.R.W.L.[am]}$$$$V2.0)
S. aureus ATCC29213; [13]
  MIC of RW-BP100-4D against S. aureus ATCC29213 after 40-80 ℃: 3 µg/mL
S. aureus ATCC29213; [14]
  MIC of RW-BP100-4D against S. aureus ATCC29213 after 90 ℃: 6 µg/mL
S. aureus ATCC29213; [15]
  MIC of RW-BP100-4D against S. aureus ATCC29213 after 100 ℃: 25 µg/mL
S. aureus ATCC29213; [16]
  MIC of RW-BP100-4D against S. aureus ATCC29213 after papain: >50 µg/mL
S. aureus ATCC29213; [17]
  MIC of RW-BP100-4D against S. aureus ATCC29213 after calf serum: >50 µg/mL
S. aureus ATCC29213; [18]
  MIC of RW-BP100-4D against S. aureus ATCC29213 after trypsin: >50 µg/mL
S. aureus ATCC29213; [19]
  MIC of RW-BP100-4D against S. aureus ATCC29213 after pH 2-7: 3 µg/mL
S. aureus ATCC29213; [20]
  MIC of RW-BP100-4D against S. aureus ATCC29213 after pH 8-9: 12 µg/mL
[1]
  MBC of peptides: 6 µg/mL
  MIC of peptides: 6 µg/mL and 3 µg/mL
[2]; CLSI M38, mean of three repeated experiments
  MIC of peptides: 12 µg/mL
[2]; mean of three repeated experiments
  MBC of peptides: 25 µg/mL
trypsin
  metabolised at 1 h, 100 μg/mL: > 90%
[3]
  Biofilm inhibited compared with the PBS control: 82.3%
[4]
  MBC of peptides: 12 µg/mL
  MIC of peptides: 6 µg/mL
[5]
  MBC of peptides: 6 µg/mL
  MIC of peptides: 3 µg/mL
[6]
  MBC of peptides: 12 µg/mL
  MIC of peptides: 6 µg/mL
[7]
  MBC of peptides: 6 µg/mL
  MIC of peptides: 3 µg/mL
[8]
  MBC of peptides: 6 µg/mL
  MIC of peptides: 3 µg/mL
[9]
  MBC of peptides: 12 µg/mL
  MIC of peptides: 6 µg/mL
[10]
  MBC of peptides: 50 µg/mL
  MIC of peptides: 25 µg/mL
Escherichia coli XG-E1
  MBC of peptides: 6 µg/mL
  MIC of peptides: 3 µg/mL
Enterococcus faecalis 32
  MBC of peptides: 50 µg/mL
  MIC of peptides: 12 µg/mL
[11]
  MBC of peptides: 6 µg/mL
  MIC of peptides: 3 µg/mL
[12]
  MBC of peptides: 6 µg/mL
  MIC of peptides: 3 µg/mL
C. albicans ATCC10231; [13]
  MIC of RW-BP100-4D against C. albicans ATCC10231 after 40-80 ℃: 12 µg/mL
C. albicans ATCC10231; [14]
  MIC of RW-BP100-4D against C. albicans ATCC10231 after 90 ℃: 25 µg/mL
C. albicans ATCC10231; [15]
  MIC of RW-BP100-4D against C. albicans ATCC10231 after 100 ℃: 50 µg/mL
C. albicans ATCC10231; [16]
  MIC of RW-BP100-4D against C. albicans ATCC10231 after papain: >50 µg/mL
C. albicans ATCC10231; [17]
  MIC of RW-BP100-4D against C. albicans ATCC10231 after calf serum: >50 µg/mL
C. albicans ATCC10231; [18]
  MIC of RW-BP100-4D against C. albicans ATCC10231 after trypsin: >50 µg/mL
C. albicans ATCC10231; [19]
  MIC of RW-BP100-4D against C. albicans ATCC10231 after pH 2-7: 12 µg/mL
C. albicans ATCC10231; [20]
  MIC of RW-BP100-4D against C. albicans ATCC10231 after pH 8-9: 25 µg/mL
In vitro
  metabolised at 1 h, 100 μg/mL: > 90%
Sheep red blood cells; 50 μg/mL peptide
  Hemolytic rate, 50 μg/mL: 0.11 ± 0.19%
Sheep red blood cells; 100 μg/mL peptide
  Hemolytic rate, 100 μg/mL: 3.69 ± 0.01%
Sheep red blood cells; 150 μg/mL peptide
  Hemolytic rate, 150 μg/mL: 18.75 ± 0.42%
Sheep red blood cells; 300 μg/mL peptide
  Hemolytic rate, 300 μg/mL: 48.55 ± 2.53%
Escherichia coli O157:H7
  MBC of peptides: 6 µg/mL
  MIC of peptides: 3 µg/mL
